Each structure is given as a SMILES string.

Data set [1] relates to sleeplessness. The data set is described as follows: Example 1: melatonin capsules for subjects having difficulty falling asleep at normal bedtime. Type of data set: in vivo, human. The following applies: 1.5 mg capsules after one hour of trying to fall asleep.
The subject of data set [2] is sleeplessness. The data set can be described thus: Example 2: melatonin capsules for subjects who awake midway during normal sleep period. Type of data set: in vivo, human. Particulars: 1.5 mg capsules after 15 minutes of trying to fall back asleep. The source says:
Subjects are those who awake at about midway during their normal sleep period and once awake have trouble falling back asleep.

The conditions of data set [3]: 2-100 mg doses, man; cited from earlier work.
A further data set has as its system mice. Particulars: mice given 800 mg/kg; cited from earlier work.

Regarding `COc1ccc2[nH]cc(CCNC(C)=O)c2c1` [Melatonin, N-acetyl-5-methyoxytryptamine], in the data set on sleeplessness [1], the sleep maintenance entry is on record as “sleep through the night”; the state on awakening entry was “alert, without any decrement in faculties”; the “time to fall asleep” value was not above 20 min. In addition, in the data set with sleeplessness [2], the sleep maintenance result is recorded as “sleep through the remainder of the night”; the state on awakening entry is “refreshed, and not sleepy or drowsy”; the “time to fall asleep” value was not above 20 min; the time until awakening fell in the range of 3 to 4 h. Moreover, in data set [3], the biological half-life is 32-48 minutes. In addition, the death result in the data set with mice is recorded as “failed to produce death”.

Values taken from patent publication US6703412B1 (priority 2002, dated 2004).
